In brackets after ≈: the same amount, converted by molar mass.
What was measured:
Assay in all cases: In vitro anti-bacterial activity test (MIC, two-fold dilution method) against the standard strains
Assay type in all cases: cell-based
[1] = tested on: Streptococcus pyogenes 308 A; details: Table 1 strain 1: Streptococcus pyogenes 308 A
[2] = tested on: Streptococcus pyogenes 77 A; details: Table 1 strain 2: Streptococcus pyogenes 77 A; read-out: MIC
[3] = tested on: Streptococcus faecium MD 8b; details: Enterococcus faecium, MD8B; Table 1 strain 3: Streptococcus faecium MD 8b; read-out: MIC
[4] = tested on: Staphylococcus aureus SG 511; details: SG511; Table 1 strain 4: Staphylococcus aureus SG 511
[5] = tested on: Staphylococcus aureus 285; details: Table 1 strain 5: Staphylococcus aureus 285; read-out: MIC
[6] = tested on: Staphylococcus aureus 503; details: Table 1 strain 6: Staphylococcus aureus 503; read-out: MIC
[7] = tested on: Escherichia coli DC 0; details: DC0; Table 1 strain 7: Escherichia coli DC 0
[8] = tested on: Escherichia coli DC 0; details: DC0; Table 1 strain 8: Escherichia coli DC 0
[9] = tested on: Escherichia coli DC 2; details: DC2; Table 1 strain 9: Escherichia coli DC 2; read-out: MIC
[10] = tested on: Escherichia coli OTEM; details: Table 1 strain 10: Escherichia coli OTEM
[11] = tested on: Escherichia coli 1507 E; details: Table 1 strain 11: Escherichia coli 1507 E
[12] = tested on: Pseudomonas aeruginosa 9027; details: Table 1 strain 12: Pseudomonas aeruginosa 9027
[13] = tested on: Pseudomonas aeruginosa 1592 E; details: Table 1 strain 13: Pseudomonas aeruginosa 1592 E
[14] = tested on: Pseudomonas aeruginosa 1771; details: Table 1 strain 14: Pseudomonas aeruginosa 1771
[15] = tested on: Pseudomonas aeruginosa 1771 M; details: Table 1 strain 15: Pseudomonas aeruginosa 1771 M
[16] = tested on: Salmonella typhimurium; details: Salmonella enterica; Table 1 strain 16: Salmonella typhimurium
[17] = tested on: Klebsiella aerogenes 1082 E; details: Table 1 strain 17: Klebsiella aerogenes 1082 E
[18] = tested on: Klebsiella aerogenes 1522 E; details: Table 1 strain 18: Klebsiella aerogenes 1522 E
[19] = tested on: Enterobacter cloacae P 99; details: P99; Table 1 strain 19: Enterobacter cloacae P 99
[20] = tested on: Enterobacter cloacae 1321 E; details: Table 1 strain 20: Enterobacter cloacae 1321 E

Row | Compound | MIC [1] | MIC [2] | MIC [3] | MIC [4] | MIC [5] | MIC [6] | MIC [7] | MIC [8] | MIC [9] | MIC [10] | MIC [11] | MIC [12] | MIC [13] | MIC [14] | MIC [15] | MIC [16] | MIC [17] | MIC [18] | MIC [19] | MIC [20]
1 | CNC1CC12CCN(c1c(F)c(N)c3c(=O)c(C(=O)O)cn(C4CC4)c3c1F)C2 (stereo not shown) [Example 12, 7-(1-methylamino-5-azaspiro[2,4]heptane-5-yl)-1-cyclopropyl-5-amino-6,8-difluoro-1,4-dihydro-4-oxoquinoline-3-carboxylic acid] | 0.195 µg/mL (≈ 0.482 µM) | 0.195 µg/mL (≈ 0.482 µM) | 0.195 µg/mL (≈ 0.482 µM) | 0.025 µg/mL (≈ 0.0618 µM) | 0.025 µg/mL (≈ 0.0618 µM) | 0.025 µg/mL (≈ 0.0618 µM) | 0.025 µg/mL (≈ 0.0618 µM) | 0.391 µg/mL (≈ 0.967 µM) | 0.195 µg/mL (≈ 0.482 µM) | 0.049 µg/mL (≈ 0.121 µM) | 0.049 µg/mL (≈ 0.121 µM) | 3.12 µg/mL (≈ 7.73 µM) | 3.12 µg/mL (≈ 7.73 µM) | 1.56 µg/mL (≈ 3.86 µM) | 0.391 µg/mL (≈ 0.967 µM) | 0.049 µg/mL (≈ 0.121 µM) | < 0.002 µg/mL | 0.098 µg/mL (≈ 0.242 µM) | 0.049 µg/mL (≈ 0.121 µM) | 0.025 µg/mL (≈ 0.0618 µM)
2 | COc1c(N2CCC3(CC3N)C2)c(F)cc2c(=O)c(C(=O)O)cn(C3CC3)c12 (stereo not shown) [Example 19, 7-(1-amino-5-azaspiro[2,4]heptane-5-yl)-1-cyclopropyl-8-methoxy-6-fluoro-1,4-dihydro-4-oxoquinoline-3-carboxylic acid] | 0.195 µg/mL (≈ 0.503 µM) | 0.098 µg/mL (≈ 0.253 µM) | 0.098 µg/mL (≈ 0.253 µM) | 0.025 µg/mL (≈ 0.0645 µM) | 0.049 µg/mL (≈ 0.126 µM) | 0.025 µg/mL (≈ 0.0645 µM) | 0.025 µg/mL (≈ 0.0645 µM) | 0.391 µg/mL (≈ 1.01 µM) | 0.049 µg/mL (≈ 0.126 µM) | 0.049 µg/mL (≈ 0.126 µM) | 0.049 µg/mL (≈ 0.126 µM) | 1.56 µg/mL (≈ 4.03 µM) | 1.56 µg/mL (≈ 4.03 µM) | 1.56 µg/mL (≈ 4.03 µM) | 0.391 µg/mL (≈ 1.01 µM) | 0.049 µg/mL (≈ 0.126 µM) | 0.007 µg/mL (≈ 0.0181 µM) | 0.098 µg/mL (≈ 0.253 µM) | 0.049 µg/mL (≈ 0.126 µM) | 0.025 µg/mL (≈ 0.0645 µM)
3 | NC1CC12CCCN(c1c(F)cc3c(=O)c(C(=O)O)cn(C4CC4)c3c1F)C2 (stereo not shown) [Example 16, 7-(1-amino-5-azaspiro[2,5]octane-5-yl)-1-cyclopropyl-6,8-difluoro-1,4-dihydro-4-oxoquinoline-3-carboxylic acid] | 0.781 µg/mL (≈ 2.01 µM) | 0.391 µg/mL (≈ 1 µM) | 0.391 µg/mL (≈ 1 µM) | 0.098 µg/mL (≈ 0.252 µM) | 0.098 µg/mL (≈ 0.252 µM) | 0.098 µg/mL (≈ 0.252 µM) | 0.049 µg/mL (≈ 0.126 µM) | 1.56 µg/mL (≈ 4.01 µM) | 0.195 µg/mL (≈ 0.501 µM) | 0.098 µg/mL (≈ 0.252 µM) | 0.098 µg/mL (≈ 0.252 µM) | 6.25 µg/mL (≈ 16.1 µM) | 3.12 µg/mL (≈ 8.03 µM) | 3.12 µg/mL (≈ 8.03 µM) | 0.781 µg/mL (≈ 2.01 µM) | 0.049 µg/mL (≈ 0.126 µM) | 0.013 µg/mL (≈ 0.0334 µM) | 0.098 µg/mL (≈ 0.252 µM) | 0.049 µg/mL (≈ 0.126 µM) | 0.049 µg/mL (≈ 0.126 µM)
4 | NC1CC12CCN(c1cc3c(cc1F)c(=O)c(C(=O)O)cn3C1CC1)C2 (stereo not shown) [Example 5, 7-(1-amino-5-azaspiro[2,4]heptane-5-yl)-1-cyclopropyl-6-fluoro-1,4-dihydro-4-oxoquinoline-3-carboxylic acid] | 0.391 µg/mL (≈ 1.09 µM) | 0.391 µg/mL (≈ 1.09 µM) | 0.195 µg/mL (≈ 0.546 µM) | 0.098 µg/mL (≈ 0.274 µM) | 0.098 µg/mL (≈ 0.274 µM) | 0.098 µg/mL (≈ 0.274 µM) | 0.025 µg/mL (≈ 0.07 µM) | 0.781 µg/mL (≈ 2.19 µM) | 0.098 µg/mL (≈ 0.274 µM) | 0.049 µg/mL (≈ 0.137 µM) | 0.098 µg/mL (≈ 0.274 µM) | 1.56 µg/mL (≈ 4.37 µM) | 1.56 µg/mL (≈ 4.37 µM) | 1.56 µg/mL (≈ 4.37 µM) | 0.391 µg/mL (≈ 1.09 µM) | 0.049 µg/mL (≈ 0.137 µM) | 0.004 µg/mL (≈ 0.0112 µM) | 0.049 µg/mL (≈ 0.137 µM) | 0.049 µg/mL (≈ 0.137 µM) | 0.025 µg/mL (≈ 0.07 µM)
5 | CNC1CC12CCN(c1cc3c(cc1F)c(=O)c(C(=O)O)cn3C1CC1)C2 (stereo not shown) [Example 11, 7-(1-methylamino-5-azaspiro[2,4]heptane-5-yl)-1-cyclopropyl-6-fluoro-1,4-dihydro-4-oxoquinoline-3-carboxylic acid] | 0.781 µg/mL (≈ 2.1 µM) | 0.781 µg/mL (≈ 2.1 µM) | 0.781 µg/mL (≈ 2.1 µM) | 0.098 µg/mL (≈ 0.264 µM) | 0.098 µg/mL (≈ 0.264 µM) | 0.098 µg/mL (≈ 0.264 µM) | 0.049 µg/mL (≈ 0.132 µM) | 1.56 µg/mL (≈ 4.21 µM) | 0.195 µg/mL (≈ 0.525 µM) | 0.098 µg/mL (≈ 0.264 µM) | 0.098 µg/mL (≈ 0.264 µM) | 3.12 µg/mL (≈ 8.41 µM) | 3.12 µg/mL (≈ 8.41 µM) | 3.12 µg/mL (≈ 8.41 µM) | 0.781 µg/mL (≈ 2.1 µM) | 0.098 µg/mL (≈ 0.264 µM) | 0.004 µg/mL (≈ 0.0108 µM) | 0.098 µg/mL (≈ 0.264 µM) | 0.098 µg/mL (≈ 0.264 µM) | 0.049 µg/mL (≈ 0.132 µM)
